In patent US12097213B2, “Sequential treatment of cancers using 6-thio-dG, checkpoint inhibitors and radiation therapy” (The Board of Regents of the University of Texas System, priority 2020, dated 2024):

Assays:
A375 tumor cells = experiment: A375 tumor model in NSG-SGM3 and humanized NSG-SGM3 mice; assay type: in vivo, mouse
Protocol: FIGS. 13A-F (related to FIGS. 6A-E). (FIGS. 13A-C) 12 weeks after humanized mouse reconstitution, human CD45+ cells and CD3+ T cells in mouse peripheral blood were tested by flow cytometry. (FIG. 13D) Cell viability (IC50) of 6-thio-dG in A375 human melanoma cancer cells. Cells were treated with 6-thio-dG for 4 days. (FIG. 13E) NSG-SGM3 mice (n=5) were inoculated with 2×10^6 A375 tumor cells and treated with 6-thio-dG (3 mg/kg, day 7 and day 8) or anti-PD-L1 plus anti-CTLA-4 (200 μg i.p., day 10 and day 13) or the combination of 6-thio-dG plus anti-PD-L1 and anti-CTLA-4. Tumor growth was measured every 3 days. (FIG. 13F) Humanized NSG-SGM3 mice (n=5-7) were inoculated with 2×10^6 A375 tumor cells and treated with 6-thio-dG (3 mg/kg, day 13 and day 14) or anti-PD-L1 plus anti-CTLA-4 (200 μg i.p., day 16 and day 19) or the combination of 6-thio-dG plus anti-PD-L1 and anti-CTLA-4. Tumor growth was measured every 3 days. Data were shown as mean±SEM. P value was determined by two-tailed unpaired t test (FIGS. 13B and 13C, n.s. p>0.05) or two-way ANOVA (FIG. 13F).
Humanized mouse tumor models. Humanized mouse reconstitution was previously described (Qiao et al., 2019). Briefly, four-week-old NSG-SGM3 female mice were irradiated with 100 cGy (X-ray irradiation with X-RAD 320 irradiator) one day prior to human CD34+ cells transfer. […] Tumor volumes were measured twice a week. […]

cancer cells = conditions: depending on cell type, even including therapy resistant cancers; read-out: observed IC50 values; cited from earlier work
[1] = system: LLC murine lung cancer cells; experiment: Cell viability assay (CellTiter 96), LLC; assay type: cell-based, mouse; conditions: treated for 4 days
Protocol: Cell viability assay. For determination of IC50 with cell proliferation assays, murine and human cancer cell lines were screened with 6-thio-dG with a 2-fold dilution series in 8 different points in 96-well plates. Cells were plated 24 hrs prior to the addition of drug, incubated for 4-5 days, and assayed using CellTiter 96® Aqueous One Solution Cell Proliferation Assay according to the manufacturer's instructions (Promega). Cell number per well ranged from 1,000 to 10,000 cells per well inversely proportional to doubling times. Dose response curves were generated and IC50s calculated using Graphpad Prism. All samples were analyzed in triplicate and standard deviations are from 2-3 independent experiments.

[2] = system: tumor infiltrating lymphocytes (TILs); experiment: Flow cytometry of tumor infiltrating cells in MC38 tumor-bearing mice; assay type: in vivo, mouse
Protocol: Tumor digestion. Tumor tissues were excised and digested with 1 mg/mL Collagenase I (Sigma) and 0.5 mg/mL DNase I (Roche) in the 37° C. for 30 mins, tumor was then passed through a 70 μm cell strainer to remove large pieces of undigested tumor. Tumor infiltrating cells were washed twice with PBS containing 2 mM EDTA. Flow cytometry analysis. Single cell suspensions of cells were incubated with anti-FcγIII/II receptor (clone 2.4G2) for 15 minutes to block the non-specific binding before staining with the conjugated antibodies, and then incubated with indicated antibody for 30 mins at 4° C. in the dark. Fixable viability Dye eFlour 506 or eFlour780 (eBioscience) was used to exclude the dead cells. Foxp3 and Ki67 were stained intracellularly by using True-Nuclear transcription factor buffer set (BioLegend) following the manufacturer's instructions. Data were collected on CytoFLEX flow cytometer (Beckman Coulter, Inc) and analyzed by using FlowJo (Tree Star Inc., Ashland, OR) software.

[3] = system: mouse BMDC co-cultured with HCT116; experiment: Cytosolic DNA extraction and qPCR in DCs co-cultured with HCT116; assay type: cell-based; conditions: HCT116 pretreated with 500 nM 6-thio-dG; co-culture 4 hrs
Protocol: Cytosolic DNA extraction and quantitative real-time PCR. HCT 116 cells were pretreated with 500 nM 6-thio-dG for 4 hrs. Then drug was washed out, tumor cells were continued to culture for 72 hrs and harvest on the same day as BMDC harvest. Then HCT116 cells were mixed 1:1 with 1×10^6 BMDC for 4 hrs. BMDC was purified and divided into two equal aliquots.
One aliquot was extracted for total genomic DNA with Purelink Genomic DNA kit (Invitrogen) and served as normalization control. The other aliquot was resuspended in 100 μL cytosolic extract buffer containing 150 mM NaCl, 50 mM HEPES and […] digitonin (Sigma) and incubated for 10 mins at RT for plasma membrane permeabilization (West et al., 2015). Then cells were centrifuged to pellet intact cells. The cytosolic supernatants were collected and centrifuged at 12000 g for 10 mins to pellet the remaining cellular debris. Then cytosolic DNA was extracted with Purelink Genomic DNA kit (Invitrogen). Quantitative PCR was performed on both whole-cell extracts and cytosolic fractions using human DNA primers and mouse DNA primers (Xu et al., 2017).
Quantitative real-time PCR. […]

[4] = 6 days after the last of three daily doses, 3 mg/kg

Nc1nc2c(ncn2[C@H]2C[C@H](O)[C@@H](CO)O2)c(=S)[nH]1 [6-thio-dG, 6-thio-2′-deoxyguanosine]
tumor growth / tumor burden (A375 tumor cells; humanized NSG-SGM3 mice, 6-thio-dG 3 mg/kg day 13 and 14, anti-PD-L1 plus anti-CTLA-4 200 μg i.p. day 16 and 19): partially delayed tumor growth
tumor growth (A375 tumor cells; immunocompromised NSG-SGM3 mice, 3 mg/kg, day 7 and day 8): did not observe any effect
IC50 (cancer cells): 700 to 2900 nM
cell viability in vitro [1]: cell viability inhibition
Treg cells (CD4+ Foxp3+) ([2]; 3 mg/kg, days 7, 8, 9): no significant changes
tumor infiltrating NK cells ([2]; 3 mg/kg, days 7, 8, 9): increased
PD-1 expression on CD8+ T cells (frequency and per cell basis) ([2]; 3 mg/kg, days 7, 8, 9, 7 days after first treatment): upregulated
CD8+ T cell proliferation (Ki67 expression) ([2]; 6 days after last treatment, 3 mg/kg): significant upregulation
frequency of CD3+ T cells in TILs [2, 4]: increase
frequency of CD8+ T cells in TILs [2, 4]: increase
YFP+ T cells in the tumor ([2]; IFN-γ YFP reporter mice, eleven days after last treatment): significantly increased
tumor-specific (OVA tetramer) CD8+ T cells in tumors ([2]; MC38-OVA tumor model, 6 days after 6-thio-dG treatment): increased
human DNAs (MT-CO1 and human 18S) in the cytosol of mouse DCs [3]: increase
